Values of other authors in patent US20220323439A1, “URACIL DERMAL PHARMACEUTICAL FORMULATION” (NANOMETICS LLC (D.B.A PHD BIOSCIENCES), priority 2019, published 2022).

Conditions: oral uracil 500 mg/m^2

Question: With O=c1cc[nH]c(=O)[nH]1 [uracil, Uracil] as the compound, how does the “Cmax of uracil after oral administration” value read?
Answer: 20000 ng/mL
